Source: patent US20250275959A1, “COMPOUNDS AND METHODS OF THEIR USE” (LEXICON PHARMACEUTICALS, INC., priority 2024, published 2025)

Legend:
hACSL5 [1] = target: T1, hACSL5 (Homo sapiens (Human), UniProt Q9ULC5); experiment: Human ACSL5 coupled enzyme Amplex Red assay; type: biochemical; conditions: read-out: hACSL5 IC50
Summary of the method: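 C-terminally His-tagged ACSL5 (33-683) from sf9 cells, 20 nM, was preincubated with compound in MOPS-NaOH pH 7.6 with MgCl2, peroxidase and acyl-CoA oxidase. Reactions were started with 25 μM oleate, 30 μM CoA, 1 mM ATP and 50 μM Amplex Red; fluorescence (535/590 nm) after 10 minutes at 25° C. was fitted to the Hill equation for IC50 and maximal inhibition.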
Target sequence in this assay (Q9ULC5 33-683): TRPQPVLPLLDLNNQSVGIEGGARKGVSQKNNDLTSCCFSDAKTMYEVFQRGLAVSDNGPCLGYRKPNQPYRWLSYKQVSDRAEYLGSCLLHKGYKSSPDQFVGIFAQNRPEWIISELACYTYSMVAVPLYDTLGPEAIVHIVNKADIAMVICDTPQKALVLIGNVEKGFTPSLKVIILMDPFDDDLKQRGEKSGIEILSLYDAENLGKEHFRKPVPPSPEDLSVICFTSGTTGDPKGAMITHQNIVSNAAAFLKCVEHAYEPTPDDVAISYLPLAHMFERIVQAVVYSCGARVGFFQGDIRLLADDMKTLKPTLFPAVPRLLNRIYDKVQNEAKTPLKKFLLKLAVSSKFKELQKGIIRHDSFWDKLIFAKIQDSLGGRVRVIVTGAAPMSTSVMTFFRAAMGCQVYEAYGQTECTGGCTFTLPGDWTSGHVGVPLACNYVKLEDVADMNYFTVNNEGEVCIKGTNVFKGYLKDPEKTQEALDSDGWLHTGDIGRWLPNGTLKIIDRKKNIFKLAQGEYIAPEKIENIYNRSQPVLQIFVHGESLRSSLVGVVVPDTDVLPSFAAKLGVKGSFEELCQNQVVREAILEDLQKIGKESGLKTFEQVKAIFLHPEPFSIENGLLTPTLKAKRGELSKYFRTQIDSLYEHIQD

hACSL5 [2] = target: T1, hACSL5; experiment: Cell-based assay (CBA) with B12FA in hACSL5-transfected Expi293F / FlpIn TRex293 cells; conditions: hACSL5-expressing cells
Summary of the method: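 hACSL5-expressing Expi293F or tetracycline-induced FlpIn TRex293 cells, serum- and glucose-starved 1 h, then treated 3 h with serially diluted compound plus 20 µM B12FA. After fixation, 630/520 nm emission ratio (ex 485 nm) gave % inhibition versus no-inhibitor and 10 µM compound/non-induced controls; IC50 by Hill fit.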
Target sequence in this assay (Q9ULC5 whole entry): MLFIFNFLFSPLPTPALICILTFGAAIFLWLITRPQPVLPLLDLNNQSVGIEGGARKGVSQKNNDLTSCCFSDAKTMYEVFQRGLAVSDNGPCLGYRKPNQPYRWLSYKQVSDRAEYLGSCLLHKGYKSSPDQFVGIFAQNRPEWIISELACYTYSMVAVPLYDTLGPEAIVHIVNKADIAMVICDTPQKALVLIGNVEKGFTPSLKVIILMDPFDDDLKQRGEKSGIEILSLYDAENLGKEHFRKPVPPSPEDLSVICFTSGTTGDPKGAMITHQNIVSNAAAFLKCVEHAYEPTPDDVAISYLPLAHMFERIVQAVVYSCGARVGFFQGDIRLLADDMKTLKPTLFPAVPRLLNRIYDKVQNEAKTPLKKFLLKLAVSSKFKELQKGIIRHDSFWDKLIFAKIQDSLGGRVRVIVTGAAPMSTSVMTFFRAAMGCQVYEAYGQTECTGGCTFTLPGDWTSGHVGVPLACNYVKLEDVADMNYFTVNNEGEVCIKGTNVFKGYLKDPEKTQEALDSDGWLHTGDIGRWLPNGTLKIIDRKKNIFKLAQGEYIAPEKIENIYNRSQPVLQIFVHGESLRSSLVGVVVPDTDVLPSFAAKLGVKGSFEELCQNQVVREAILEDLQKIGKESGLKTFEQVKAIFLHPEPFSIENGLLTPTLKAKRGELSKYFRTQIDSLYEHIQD

| SMILES | IC50 (hACSL5 [1]) [nM] | IC50 (hACSL5 [2]) [nM] |
| --- | --- | --- |
| CC[C@@H](Oc1ccc(C(=O)NS(=O)(=O)c2ccc(OC3CCN(C)C(C)(C)C3)cc2)c(F)c1F)c1ccc(OCC2CC2)cn1 (stereo partly drawn) [4-((R)-1-(5-(cyclopropylmethoxy)pyridin-2-yl)propoxy)-2,3-difluoro-N-((4-((1,2,2-trimethylpiperidin-4-yl)oxy)phenyl)sulfonyl)benzamide] | < 100 | 100 to 500 |
| CC[C@@H](Oc1ccc(C(=O)NS(=O)(=O)N2CCN(CC(C)(C)F)CC2)c(F)c1F)c1ccc(OCC2CC2)cn1 [(R)-4-(1-(5-(cyclopropylmethoxy)pyridin-2-yl)propoxy)-2,3-difluoro-N-((4-(2-fluoro-2-methylpropyl)piperazin-1-yl)sulfonyl)benzamide] | < 100 | < 100 |
| CC[C@@H](Oc1ccc(C(=O)NS(=O)(=O)c2ccc(OCCNC3CC3)cc2)c(F)c1F)c1ccc(OCC2CC2)cn1 [(R)-N-((4-(2-(cyclopropylamino)ethoxy)phenyl)sulfonyl)-4-(1-(5-(cyclopropylmethoxy)pyridin-2-yl)propoxy)-2,3-difluorobenzamide] | < 100 | < 100 |
| CC[C@@H](Oc1ccc(C(=O)NS(=O)(=O)N2CCN(C)CC2(C)C)c(F)c1F)c1ccc(Oc2ccccn2)cn1 [(R)-2,3-difluoro-4-(1-(5-(pyridin-2-yloxy)pyridin-2-yl)propoxy)-N-((2,2,4-trimethylpiperazin-1-yl)sulfonyl)benzamide] | < 100 | < 100 |
| CC[C@@H](Oc1ccc(C(=O)NS(=O)(=O)N2CCC(OC3CCN(CC4CC4)CC3)CC2)c(F)c1F)c1ccc(OCC2CC2)cn1 [(R)-4-(1-(5-(cyclopropylmethoxy)pyridin-2-yl)propoxy)-N-((4-((1-(cyclopropylmethyl)piperidin-4-yl)oxy)piperidin-1-yl)sulfonyl)-2,3-difluorobenzamide] | < 100 | 100 to 500 |
| CC[C@@H](Oc1ccc(C(=O)NS(=O)(=O)N2CCC(CN3CCN(CC)CC3)CC2)c(F)c1F)c1ccc(OCC2CC2)cn1 [(R)-4-(1-(5-(cyclopropylmethoxy)pyridin-2-yl)propoxy)-N-((4-((4-ethylpiperazin-1-yl)methyl)piperidin-1-yl)sulfonyl)-2,3-difluorobenzamide] | < 100 | > 500 |
| CC[C@@H](Oc1ccc(C(=O)NS(=O)(=O)c2ccc(O[C@H]3CCN(C)C3)cc2)c(F)c1F)c1ccc(OCC2CC2)cn1 [4-((R)-1-(5-(cyclopropylmethoxy)pyridin-2-yl)propoxy)-2,3-difluoro-N-((4-(((S)-1-methylpyrrolidin-3-yl)oxy)phenyl)sulfonyl)benzamide] | < 100 | 100 to 500 |
| CC[C@@H](Oc1ccc(C(=O)NS(=O)(=O)c2ccc(OC3CCN(C(C)C)CC3)cc2)c(F)c1F)c1ccc(OCC2CC2)cn1 [(R)-4-(1-(5-(cyclopropylmethoxy)pyridin-2-yl)propoxy)-2,3-difluoro-N-((4-((1-isopropylpiperidin-4-yl)oxy)phenyl)sulfonyl)benzamide] | < 100 | 100 to 500 |
| CC[C@@H](Oc1ccc(C(=O)NS(=O)(=O)N2CCN(C3CC3)CC2)c(F)c1F)c1cc(Oc2ccccn2)ccn1 [(R)-N-((4-cyclopropylpiperazin-1-yl)sulfonyl)-2,3-difluoro-4-(1-(4-(pyridin-2-yloxy)pyridin-2-yl)propoxy)benzamide] | < 100 | 100 to 500 |
| CC(Oc1ccc(C(=O)NS(=O)(=O)c2cnn(CCN(C)C)c2)c(F)c1F)c1cccc(OCC2CC2)c1 (stereo not shown) [4-(1-(3-(cyclopropylmethoxy)phenyl)ethoxy)-N-((1-(2-(dimethylamino)ethyl)-1H-pyrazol-4-yl)sulfonyl)-2,3-difluorobenzamide] | 100 to 500 | > 500 |
| CC[C@@H](Oc1ccc(C(=O)NS(=O)(=O)N2CCC(OC3CCN(CCOC)CC3)CC2)c(F)c1F)c1ccc(OCC2CC2)cn1 [(R)-4-(1-(5-(cyclopropylmethoxy)pyridin-2-yl)propoxy)-2,3-difluoro-N-((4-((1-(2-methoxyethyl)piperidin-4-yl)oxy)piperidin-1-yl)sulfonyl)benzamide] | < 100 | < 100 |
| CC[C@@H](Oc1ccc(C(=O)NS(=O)(=O)c2ccc(OC3CCN(C)CC3)cc2)c(F)c1F)c1ccc(OCC2CC2)cn1 [(R)-4-(1-(5-(cyclopropylmethoxy)pyridin-2-yl)propoxy)-2,3-difluoro-N-((4-((1-methylpiperidin-4-yl)oxy)phenyl)sulfonyl)benzamide] | < 100 | < 100 |
| CC[C@@H](Oc1ccc(C(=O)NS(=O)(=O)c2ccc(OCCn3ccnc3)cc2)c(F)c1F)c1ccc(OCCOC)cn1 [(R)-N-((4-(2-(1H-imidazol-1-yl)ethoxy)phenyl)sulfonyl)-2,3-difluoro-4-(1-(5-(2-methoxyethoxy)pyridin-2-yl)propoxy)benzamide] | < 100 | > 500 |
| CC[C@@H](Oc1ccc(C(=O)NS(=O)(=O)c2ccc(OCCN(C)C)cc2)cc1C(F)(F)F)c1ccc(OC2CC(OC)C2)cn1 (stereo partly drawn) [N-((4-(2-(dimethylamino)ethoxy)phenyl)sulfonyl)-4-((R)-1-(5-((1R,3R)-3-methoxycyclobutoxy)pyridin-2-yl)propoxy)-3-(trifluoromethyl)benzamide] | 100 to 500 | 100 to 500 |
| [2H]C([2H])([2H])N1CCC(Oc2ccc(S(=O)(=O)NC(=O)c3ccc(O[C@H](CC)c4ccc(OCC5CC5)cn4)c(F)c3F)cc2)CC1 [(R)-4-(1-(5-(cyclopropylmethoxy)pyridin-2-yl)propoxy)-2,3-difluoro-N-((4-((1-(methyl-d3)piperidin-4-yl)oxy)phenyl)sulfonyl)benzamide] | < 100 | < 100 |
| CC[C@@H](Oc1ccc(C(=O)NS(=O)(=O)c2ccc(OC3CCN(CC(C)(C)O)CC3)cc2)c(F)c1F)c1ccc(OCC2CC2)cn1 [(R)-4-(1-(5-(cyclopropylmethoxy)pyridin-2-yl)propoxy)-2,3-difluoro-N-((4-((1-(2-hydroxy-2-methylpropyl)piperidin-4-yl)oxy)phenyl)sulfonyl)benzamide] | < 100 | 100 to 500 |
| CC[C@@H](Oc1ccc(C(=O)NS(=O)(=O)c2ccc(OCCN(C)C)cc2)c(F)c1F)c1ccc(OC2CC(OC)C2)cn1 (stereo partly drawn) [N-((4-(2-(dimethylamino)ethoxy)phenyl)sulfonyl)-2,3-difluoro-4-((R)-1-(5-((1R,3R)-3-methoxycyclobutoxy)pyridin-2-yl)propoxy)benzamide] | < 100 | 100 to 500 |
| CC[C@@H](Oc1ccc(C(=O)NS(=O)(=O)c2ccc(OC3CCN(C)CC3)nc2)c(F)c1F)c1ccc(OCC2CC2)cn1 [(R)-4-(1-(5-(cyclopropylmethoxy)pyridin-2-yl)propoxy)-2,3-difluoro-N-((6-((1-methylpiperidin-4-yl)oxy)pyridin-3-yl)sulfonyl)benzamide] | < 100 | 100 to 500 |
| CC[C@@H](Oc1ccc(C(=O)NS(=O)(=O)N2CCN(C3CCC3)CC2)c(F)c1F)c1ccc(Oc2ccccn2)cn1 [(R)-N-((4-cyclobutylpiperazin-1-yl)sulfonyl)-2,3-difluoro-4-(1-(5-(pyridin-2-yloxy)pyridin-2-yl)propoxy)benzamide] | < 100 | < 100 |
| CC[C@@H](Oc1ccc(C(=O)NS(=O)(=O)N2CCCN(C)CC2)c(F)c1F)c1ccc(OCC2CC2)cn1 [(R)-4-(1-(5-(cyclopropylmethoxy)pyridin-2-yl)propoxy)-2,3-difluoro-N-((4-methyl-1,4-diazepan-1-yl)sulfonyl)benzamide] | 100 to 500 | 100 to 500 |
| CC[C@@H](Oc1ccc(C(=O)NS(=O)(=O)c2ccc(OCCN3CCCC3)nc2)c(F)c1F)c1ccc(OCC2CC2)cn1 [(R)-4-(1-(5-(cyclopropylmethoxy)pyridin-2-yl)propoxy)-2,3-difluoro-N-((6-(2-(pyrrolidin-1-yl)ethoxy)pyridin-3-yl)sulfonyl)benzamide] | < 100 | 100 to 500 |
| CC[C@@H](Oc1ccc(C(=O)NS(=O)(=O)c2ccc(OC3CCN(CC4CC4)CC3)cc2)c(F)c1F)c1ccc(OCC2CC2)cn1 [(R)-4-(1-(5-(cyclopropylmethoxy)pyridin-2-yl)propoxy)-N-((4-((1-(cyclopropylmethyl)piperidin-4-yl)oxy)phenyl)sulfonyl)-2,3-difluorobenzamide] | < 100 | < 100 |
| CC[C@@H](Oc1ccc(C(=O)NS(=O)(=O)N2CCN(CC)CC2)c(F)c1F)c1ccc(OCC2CC2)cn1 [(R)-4-(1-(5-(cyclopropylmethoxy)pyridin-2-yl)propoxy)-N-((4-ethylpiperazin-1-yl)sulfonyl)-2,3-difluorobenzamide] | < 100 | < 100 |
| CC[C@@H](Oc1ccc(C(=O)NS(=O)(=O)c2ccc(OCCN(C)C)cc2)c(F)c1F)c1cc(Oc2ccccn2)ccn1 [(R)-N-((4-(2-(dimethylamino)ethoxy)phenyl)sulfonyl)-2,3-difluoro-4-(1-(4-(pyridin-2-yloxy)pyridin-2-yl)propoxy)benzamide] | < 100 | 100 to 500 |
| CC[C@@H](Oc1ccc(C(=O)NS(=O)(=O)c2ccc(OCCN3CCOCC3)cc2)c(F)c1F)c1ccc(OCC2CC2)cn1 [(R)-4-(1-(5-(cyclopropylmethoxy)pyridin-2-yl)propoxy)-2,3-difluoro-N-((4-(2-morpholinoethoxy)phenyl)sulfonyl)benzamide] | < 100 | > 500 |
| CC[C@@H](Oc1ccc(C(=O)NS(=O)(=O)N2CCN(CC(C)(C)O)CC2)c(F)c1F)c1ccc(OCC2CC2)cn1 [(R)-4-(1-(5-(cyclopropylmethoxy)pyridin-2-yl)propoxy)-2,3-difluoro-N-((4-(2-hydroxy-2-methylpropyl)piperazin-1-yl)sulfonyl)benzamide] | < 100 | 100 to 500 |
